{
  "source": "patent US12097204B2",
  "about": "“Solid pharmaceutical composition containing 1,3,5-triazine derivative or salt thereof” (CHIA TAI TIANQING PHARMACEUTICAL GROUP CO., LTD., priority 2018, dated 2024)",
  "experiment": "Solubility of the compound of formula I",
  "type": "physicochemical",
  "data": [
    {"compound": "CC(C)(C)ONc1nc(Nc2ccnc(C(F)(F)F)c2)nc(-c2cccc(C(F)(F)F)n2)n1", "note": "[compound of formula I, 4-(tert-butoxyamino)-6-(6-(trifluoromethyl)pyridin-2-yl)-N-(2-(trifluoromethyl)pyridin-4-yl)-1,3,5-triazin-2-amine]", "values": [
      {"measurement": "Solubility in either acidic or basic condition", "setting": "acidic or basic condition", "result": "poor solubility"},
      {"measurement": "Solubility in water", "setting": "water", "result": "hardly soluble"}
    ]}
  ]
}
